Source: the supplement of paper PMC10307832

What was measured:
Experiment in all cases: relative viability (nuclei count vs DMSO), 5 days (fraction); higher = more cells survive
Zosuquidar + Navitoclax = compound: O[C@@H](COc1cccc2ncccc12)CN1CCN([C@@H]2c3ccccc3[C@@H]3[C@H](c4ccccc42)C3(F)F)CC1 [Zosuquidar] + CC1(C)CCC(c2ccc(Cl)cc2)=C(CN2CCN(c3ccc(C(=O)NS(=O)(=O)c4ccc(N[C@H](CCN5CCOCC5)CSc5ccccc5)c(S(=O)(=O)C(F)(F)F)c4)cc3)CC2)C1 [Navitoclax] (partner 0.5 µM)
Outline: (§1)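 One day after seeding in 1536-well plates, lung cancer cell lines were dosed by pin tool. Dosing was either single-drug or a fixed anchor-drug dose plus five library-drug doses (not always all listed) in √10 steps. After 5 days, nuclei were stained in one fix-and-stain step and counted on 4× images, and relative viability is the nuclei count of treated wells over that of vehicle wells, given as the median of duplicate plates.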

[1] = compound: COc1cc2nccc(Oc3ccc(NC(=O)C4(C(=O)Nc5ccc(F)cc5)CC4)cc3)c2cc1OC [Cabozantinib] + Cc1cc(Nc2cc(N3CCN(C)CC3)nc(Sc3ccc(NC(=O)C4CC4)cc3)n2)n[nH]1 [Tozasertib] (partner 0.1 µM)
Outline: as §1

Kobe2602 + Alpelisib = compound: C1=CC(=CC=C1NC(=S)NNC2=C(C=C(C=C2[N+](=O)[O-])C(F)(F)F)[N+](=O)[O-])F [Kobe2602] + Cc1nc(NC(=O)N2CCC[C@H]2C(N)=O)sc1-c1ccnc(C(C)(C)C(F)(F)F)c1 [Alpelisib] (partner 2 µM)
Outline: as §1

Zosuquidar + AZD7762 = compound: O[C@@H](COc1cccc2ncccc12)CN1CCN([C@@H]2c3ccccc3[C@@H]3[C@H](c4ccccc42)C3(F)F)CC1 [Zosuquidar] + NC(=O)Nc1cc(-c2cccc(F)c2)sc1C(=O)N[C@H]1CCCNC1 [AZD7762] (partner 0.2 µM)
Outline: as §1

Cell Line: NCI-H322M
- relative viability (Zosuquidar + Navitoclax; first compound 0.01 µM): 1.26
- relative viability (Zosuquidar + Navitoclax; first compound 0.03162 µM): 1.16
- relative viability (Zosuquidar + Navitoclax; first compound 0.1 µM): 1.08
- relative viability (Zosuquidar + Navitoclax; first compound 0.3162 µM): 1.29
- relative viability (Zosuquidar + Navitoclax; first compound 1 µM): 1.14
- relative viability ([1]; first compound 0.02 µM): 0.488
- relative viability ([1]; first compound 0.06325 µM): 0.511
- relative viability ([1]; first compound 0.2 µM): 0.425
- relative viability ([1]; first compound 0.6325 µM): 0.439
- relative viability ([1]; first compound 2 µM): 0.436
- relative viability (Kobe2602 + Alpelisib; first compound 0.2 µM): 0.808
- relative viability (Kobe2602 + Alpelisib; first compound 0.6325 µM): 0.81
- relative viability (Kobe2602 + Alpelisib; first compound 2 µM): 0.828
- relative viability (Kobe2602 + Alpelisib; first compound 6.325 µM): 0.827
- relative viability (Kobe2602 + Alpelisib; first compound 20 µM): 0.792
- relative viability (Zosuquidar + AZD7762; first compound 0.01 µM): 0.586
- relative viability (Zosuquidar + AZD7762; first compound 0.03162 µM): 0.507
- relative viability (Zosuquidar + AZD7762; first compound 0.1 µM): 0.495
- relative viability (Zosuquidar + AZD7762; first compound 0.3162 µM): 0.56
- relative viability (Zosuquidar + AZD7762; first compound 1 µM): 0.49

Cell Line: NCI-H2126
- relative viability (Zosuquidar + Navitoclax; first compound 0.01 µM): 0.79
- relative viability (Zosuquidar + Navitoclax; first compound 0.03162 µM): 0.845
- relative viability (Zosuquidar + Navitoclax; first compound 0.1 µM): 0.741
- relative viability (Zosuquidar + Navitoclax; first compound 0.3162 µM): 0.889
- relative viability (Zosuquidar + Navitoclax; first compound 1 µM): 0.845
- relative viability ([1]; first compound 0.02 µM): 0.865
- relative viability ([1]; first compound 0.06325 µM): 0.937
- relative viability ([1]; first compound 0.2 µM): 0.816
- relative viability ([1]; first compound 0.6325 µM): 0.814
- relative viability ([1]; first compound 2 µM): 0.848
- relative viability (Kobe2602 + Alpelisib; first compound 0.2 µM): 0.688
- relative viability (Kobe2602 + Alpelisib; first compound 0.6325 µM): 0.817
- relative viability (Kobe2602 + Alpelisib; first compound 2 µM): 0.726
- relative viability (Kobe2602 + Alpelisib; first compound 6.325 µM): 0.735
- relative viability (Kobe2602 + Alpelisib; first compound 20 µM): 0.806
- relative viability (Zosuquidar + AZD7762; first compound 0.01 µM): 1.03
- relative viability (Zosuquidar + AZD7762; first compound 0.03162 µM): 1
- relative viability (Zosuquidar + AZD7762; first compound 0.1 µM): 0.911
- relative viability (Zosuquidar + AZD7762; first compound 0.3162 µM): 1.04
- relative viability (Zosuquidar + AZD7762; first compound 1 µM): 1.01

Cell Line: NCI-H647
- relative viability (Zosuquidar + Navitoclax; first compound 0.01 µM): 1.02
- relative viability (Zosuquidar + Navitoclax; first compound 0.03162 µM): 1.1
- relative viability (Zosuquidar + Navitoclax; first compound 0.1 µM): 0.986
- relative viability (Zosuquidar + Navitoclax; first compound 0.3162 µM): 1.14
- relative viability (Zosuquidar + Navitoclax; first compound 1 µM): 1.06
- relative viability ([1]; first compound 0.02 µM): 0.483
- relative viability ([1]; first compound 0.06325 µM): 0.195
- relative viability ([1]; first compound 0.2 µM): 0.421
- relative viability ([1]; first compound 0.6325 µM): 0.334
- relative viability ([1]; first compound 2 µM): 0.203
- relative viability (Kobe2602 + Alpelisib; first compound 0.2 µM): 1.23
- relative viability (Kobe2602 + Alpelisib; first compound 0.6325 µM): 1.37
- relative viability (Kobe2602 + Alpelisib; first compound 2 µM): 1.11
- relative viability (Kobe2602 + Alpelisib; first compound 6.325 µM): 1.21
- relative viability (Kobe2602 + Alpelisib; first compound 20 µM): 1.12
- relative viability (Zosuquidar + AZD7762; first compound 0.01 µM): 0.417
- relative viability (Zosuquidar + AZD7762; first compound 0.03162 µM): 0.392
- relative viability (Zosuquidar + AZD7762; first compound 0.1 µM): 0.322
- relative viability (Zosuquidar + AZD7762; first compound 0.3162 µM): 0.681
- relative viability (Zosuquidar + AZD7762; first compound 1 µM): 0.516

Cell Line: LU99A
- relative viability (Zosuquidar + Navitoclax; first compound 0.01 µM): 0.783
- relative viability (Zosuquidar + Navitoclax; first compound 0.03162 µM): 0.819
- relative viability (Zosuquidar + Navitoclax; first compound 0.1 µM): 0.79
- relative viability (Zosuquidar + Navitoclax; first compound 0.3162 µM): 0.91
- relative viability (Zosuquidar + Navitoclax; first compound 1 µM): 0.73
- relative viability ([1]; first compound 0.02 µM): 0.27
- relative viability ([1]; first compound 0.06325 µM): 0.245
- relative viability ([1]; first compound 0.2 µM): 0.258
- relative viability ([1]; first compound 0.6325 µM): 0.255
- relative viability ([1]; first compound 2 µM): 0.224
- relative viability (Kobe2602 + Alpelisib; first compound 0.2 µM): 0.515
- relative viability (Kobe2602 + Alpelisib; first compound 0.6325 µM): 0.525
- relative viability (Kobe2602 + Alpelisib; first compound 2 µM): 0.415
- relative viability (Kobe2602 + Alpelisib; first compound 6.325 µM): 0.542
- relative viability (Kobe2602 + Alpelisib; first compound 20 µM): 0.607
- relative viability (Zosuquidar + AZD7762; first compound 0.01 µM): 0.257
- relative viability (Zosuquidar + AZD7762; first compound 0.03162 µM): 0.413
- relative viability (Zosuquidar + AZD7762; first compound 0.1 µM): 0.355
- relative viability (Zosuquidar + AZD7762; first compound 0.3162 µM): 0.418
- relative viability (Zosuquidar + AZD7762; first compound 1 µM): 0.375

Cell Line: NCI-H1666
- relative viability (Zosuquidar + Navitoclax; first compound 0.01 µM): 0.906
- relative viability (Zosuquidar + Navitoclax; first compound 0.03162 µM): 1
- relative viability (Zosuquidar + Navitoclax; first compound 0.1 µM): 1.03
- relative viability (Zosuquidar + Navitoclax; first compound 0.3162 µM): 1.02
- relative viability (Zosuquidar + Navitoclax; first compound 1 µM): 0.818
- relative viability ([1]; first compound 0.02 µM): 0.628
- relative viability ([1]; first compound 0.06325 µM): 0.644
- relative viability ([1]; first compound 0.2 µM): 0.622
- relative viability ([1]; first compound 0.6325 µM): 0.619
- relative viability ([1]; first compound 2 µM): 0.673
- relative viability (Kobe2602 + Alpelisib; first compound 0.2 µM): 0.97
- relative viability (Kobe2602 + Alpelisib; first compound 0.6325 µM): 0.925
- relative viability (Kobe2602 + Alpelisib; first compound 6.325 µM): 0.893
- relative viability (Kobe2602 + Alpelisib; first compound 20 µM): 0.768
- relative viability (Zosuquidar + AZD7762; first compound 0.01 µM): 0.852
- relative viability (Zosuquidar + AZD7762; first compound 0.03162 µM): 0.979
- relative viability (Zosuquidar + AZD7762; first compound 0.1 µM): 0.752
- relative viability (Zosuquidar + AZD7762; first compound 0.3162 µM): 0.826
- relative viability (Zosuquidar + AZD7762; first compound 1 µM): 0.862

Cell Line: NCI-H596
- relative viability (Zosuquidar + Navitoclax; first compound 0.01 µM): 1.04
- relative viability (Zosuquidar + Navitoclax; first compound 0.03162 µM): 1.05
- relative viability (Zosuquidar + Navitoclax; first compound 0.1 µM): 0.861
- relative viability (Zosuquidar + Navitoclax; first compound 0.3162 µM): 0.982
- relative viability (Zosuquidar + Navitoclax; first compound 1 µM): 0.972
- relative viability ([1]; first compound 0.02 µM): 0.95
- relative viability ([1]; first compound 0.06325 µM): 0.8
- relative viability ([1]; first compound 0.2 µM): 0.924
- relative viability ([1]; first compound 0.6325 µM): 0.905
- relative viability ([1]; first compound 2 µM): 0.767
- relative viability (Kobe2602 + Alpelisib; first compound 0.2 µM): 0.489
- relative viability (Kobe2602 + Alpelisib; first compound 0.6325 µM): 0.438
- relative viability (Kobe2602 + Alpelisib; first compound 2 µM): 0.46
- relative viability (Kobe2602 + Alpelisib; first compound 6.325 µM): 0.453
- relative viability (Kobe2602 + Alpelisib; first compound 20 µM): 0.415
- relative viability (Zosuquidar + AZD7762; first compound 0.01 µM): 0.974
- relative viability (Zosuquidar + AZD7762; first compound 0.03162 µM): 1.14
- relative viability (Zosuquidar + AZD7762; first compound 0.1 µM): 0.958
- relative viability (Zosuquidar + AZD7762; first compound 0.3162 µM): 1.25
- relative viability (Zosuquidar + AZD7762; first compound 1 µM): 1.28
